Read-outs that look alike come from different tables or passages of the source.
Columns and labels:
[1] = tested on: Trypanosoma brucei rhodesiense (Tbr) (STIB 900 strain) trypomastigotes; assay: in vitro activity against Trypanosoma brucei rhodesiense bloodstream trypomastigotes; assay type: cell-based; conditions: for IC50: Trypanosoma brucei, read-out: Tbr IC50; for SI (selectivity index): cytotoxicity L6 IC50 versus Tbr IC50
Experimental: (§1) The dichloromethane (CH2Cl2) extract obtained from leaves of V. cinerascens was tested for in vitro antiprotozoal activity against Trypanosoma brucei rhodesiense (Tbr) (STIB 900 strain) trypomastigotes, T. cruzi (Tcr) (Tulahuen C4 strain) amastigotes, Leishmania donovani (Ldon) (MHOM-ET-67/L82 strain) axenic amastigotes, and Plasmodium falciparum (Pf) (NF54 strain) intra-erythrocytic forms. It was also evaluated for in vitro cytotoxicity against mammalian cells, specifically the rat-skeletal myoblast cell line L6. […] Therefore, the CH2Cl2 extract was fractionated by silica gel column chromatography and representative fractions were subjected to bioactivity testing against Tbr (STIB 900 strain) trypomastigotes.
(§2) In vitro bioactivity tests were performed as previously described against Tbr (bloodstream trypomastigotes, STIB 900 strain), Tcr (amastigotes, Tulahuen C4 strain), Ldon (axenic amastigotes, MHOM-ET-67/L82 strain), and Pf (intraerythrocytic forms, NF54 strain), and the cytotoxicity test was conducted against mammalian cells (L6 cell line from rat-skeletal myoblasts) at the Swiss Tropical and Public Health Institute (Swiss TPH, Basel, Switzerland).

[2] = in vitro cytotoxicity against mammalian cells (L6); assay type: cell-based, rat
Experimental: as §1, §2

[3] = tested on: Trypanosoma brucei rhodesiense (Tbr) (STIB 900 strain) trypomastigotes; parameters: method as in PMID 28397756; conditions: isolated from V. lasiopus in previous study; read-out: in vitro antiTbr activity IC50; cited from earlier work
[4] = bloodstream trypomastigotes, STIB 900 strain, means of two independent determinations ± absolute deviation
[5] = L6 cell line from rat-skeletal myoblasts, means of two independent determinations ± absolute deviation, read-out: Cytotoxicity IC50

Row | Compound | IC50 [1, 4] [µM] | SI (selectivity index) [1] | IC50 ([2]; rat) [µM] | IC50 [2, 5] [µM] | IC50 [1] [µM] | IC50 [3] [µM]
1 | C=C[C@@]12COC(=O)C(=C)[C@@H]1[C@H]1OC(=O)C(=C)[C@@H]1[C@@H](OC(=O)C(=C)CO)C2 [Compound 2, vernodalin] | 0.16 ± 0.04 | 35 | 5.6 |  |  | 
2 | C=C[C@@]12COC(=O)C(=C)[C@@H]1[C@H]1OC(=O)[C@@H](C)[C@@H]1[C@@H](OC(=O)C(=C)CO)C2 [Compound 3, 11β,13-dihydrovernodalin] | 1.1 ± 0.3 | 4.2 | 4.7 ± 0.4 |  |  | 
3 | C=C(C)C(=O)OC1CC23OC2CCC(=CC2OC(=O)C(C)C21)COC3O (stereo not drawn) [Compound 4, 11β,13-dihydrovernolide] | 17 | 0.8 |  | 13 ± 2 |  | 
4 | C=C(C)C(=O)OC1CC23OC2CCC(=CC2OC(=O)C(=C)C21)COC3O (stereo not drawn) [Compound 5, vernolide] | 0.5 ± 0.01 | 13 |  | 6.9 |  | 
5 | C=C(CO)C(=O)OC1CC23OC2CCC(=CC2OC(=O)C(C)C21)COC3O (stereo not drawn) [Compound 6, 11β,13-dihydrohydroxyvernolide] | 15 | 3.2 | 49 ± 1 |  |  | 
6 | C=C(CO)C(=O)OC1CC23OC2CCC(=CC2OC(=O)C(=C)C21)COC3O (stereo not drawn) [Compound 7, hydroxyvernolide] | 5 | 4.3 | 22 ± 1 |  |  | 
7 | C=C(CO)C(=O)O[C@H]1C[C@@]2(CO)O[C@@H]2CC/C(C=O)=C/[C@H]2OC(=O)C(=C)[C@H]12 [Compound 8, vernocinerascolide] | 4.8 ± 1.1 | 27 | 128 ± 1 |  |  | 
8 | Nc1nc(N)nc(Nc2ccc([As]3SCC(CO)S3)cc2)n1 (stereo not drawn) [melarsoprol, reference compound] |  |  |  |  | 0.003 ± 0.001 | 
9 | COc1cc([C@@H]2c3cc4c(cc3[C@H](O)[C@H]3COC(=O)[C@H]23)OCO4)cc(OC)c1OC [podophyllotoxin, reference compound] |  |  |  | 0.007 ± 0.001 |  | 
10 | vernodalol [Compound 1] |  |  |  |  |  | 0.26

From PMC6017816, “Sesquiterpene Lactones from Vernonia cinerascens Sch. Bip. and Their in Vitro Antitrypanosomal Activity” (Molecules : A Journal of Synthetic Chemistry and Natural …, 2018)
